Assay [1] deals with RKO/hPar4 cells. In words: Xenograft tumor model, RKO/hPar4 clone inoculated subcutaneously in nude mice. It counts as in vivo. As to conditions: for tumor growth / tumor size: RKO/hPar4 in nude mice, s.c. at tumor site, 100 μM, 0.25 mg/30 gm, 3 times/week, from day of inoculation or 4 days later, 32 days. On the procedure:
FIG. 9A. A clone of RKO/PAR4 overexpressing cells (1×10^6) were injected subcutaneously into nude mice. PAR4 c(4-4) (100 μM; 0.25 mg/30 gm) was subcutaneously injected, at the site of the tumor either at the same day of RKO/PAR4 clone inoculation or 4 days later. The inhibitor was applied repeatedly 3 times/week for 3 weeks. Mice were weighted every 3 days and tumor size was measured. Mice were sacrificed after 32 days. […] Tumors were weighed and measured for size at the indicated time points and tumor volume was calculated05. FIG. 9C. qPCR of a representative RKO stable clone of PAR4. Error bars show s.d.; *** P<0.001. FIG. 9D. IHC of RKO/PAR4 derived tumors. Immunohistochemistry of RKO compared to small tumors in the presence of PAR4 c(4-4) inhibitor. Levels of proliferation in the large and small tumors were indicated by applying anti ki67 abs (FIG. 9Da and 9Db). For apoptosis, application of active caspase-3 Abs were applied (FIG. 9Dc and 9Dd). […] FIG. 9E. Histograms representing positive IHC in each treatment group. […] Hematoxilyn & eosin staining of large (left panel) and small (right panel) tumors distinctly indicate to the appearance of a wide basement membrane in the small tumors whereas a thinner and cell-invaded basement membrane is observed in large tumors.
We have generated stable clones overexpressing PAR4 in RKO cells, a non-aggressive colon cancer cell line (expressing wt p53), by infecting the cells with HA-hPar4 virus. This was followed by selection using Geneticin G418 resistance (500 μg/ml) to produce RKO/hPar4 clones. Clone efficiency generation was evaluated using qPCR analyses.
(§1) Male athymic nude mice aged 6-7 weeks were pre-implanted subcutaneously with the relevant cells (1×10^6 cells): either with HCT-116 or with RKO/hPar4 cells.
The inhibitor was injected at the site of the tumor at the day of inoculation. In an additional group, mice implanted with HCT-116 were administered with the inhibitor at day 4 after inoculation. The inhibitor ([…]) was applied repeatedly 3 times/week to all mice after the first administration of the inhibitor.
Mice were monitored for tumor size by external caliber measurements (length and width) on days 7, 14, 22 and for up to 32 days, if tumor burden allowed. Tumor volume (V) was calculated by V=L×W^2×0.5, where L is length and W is width. At the end of the experiment, mice were euthanized and tumors were removed, weighed and fixed in formalin for histology. All mice survived to the end of the experiment. All animal experiments were approved by the animal committee of the Hebrew University (MD-19-15924). In fact, for the xenograft tumor formation we have utilized two types of cell lines; the HCT116 cells, an aggressive colon cancer cell line, overexpressing oncogenes among of which is also PAR4, (FIGS. 10A and 10B) and clone/s overexpressing Par4, generated in RKO cell line; RKO/hPar4 cells (FIG. 9A-9C). HCT116 (1×10^6) and RKO/hPar4 (1×10^6) clone/s were inoculated subcutaneously in nude mice. The Pc(4-4) cyclic peptide was injected at the site of the tumor (100 μM; 0.25 mg/30 gram mouse), either at the time of tumor cell injection or 4 days after tumor-cell implantation. The Pc(4-4) cyclic peptide was applied repeatedly 3 times/week. The HCT116 cell inoculation generated large tumors and were terminated after 20 days, whereas the RKO/Par4 inoculation developed tumors on a slower pace and were terminated after 32 days. […] The powerful inhibition of tumor growth was seen regardless of whether the Pc(4-4) cyclic peptide was applied at the same time of tumor inoculation or applied 4 days later. This was obtained irrespective of using an aggressive colon cancer cell line or stable RKO/hPar4 clone/s, overexpressing PAR4 (FIGS. 9A and 9B).

Assay [2] concerns HCT116 cells. Kind of assay: Xenograft tumor model, HCT116 cells inoculated subcutaneously in nude mice. It counts as in vivo. As to conditions: s.c., 100 μM, 0.25 mg/30 gm, 3 times/week, from day of inoculation or 4 days later, terminated after 20 days. On the procedure:
HCT116 cells (1×10^6) were injected subcutaneously to nude mice. Pc(4-4) (100 μM; 0.25 mg/30 gm) was subcutaneously injected, either at the same day of tumor cell inoculation or 4 days later. The inhibitor was applied repeatedly 3 times/week for 3 weeks. Mice were weighted every 3 days and tumor size was measured. Mice were sacrificed after 21 days. This is a representative of three times performed experiments. […] Tumor volume measurements of HCT116 cells inoculated into nude mice. Tumors were weighed and measured for size at the indicated time points and tumor volume was calculated. Error bars show s.d.; * P<0.05; *** P<0.001; while ns are considered as not significant.
Another cell lines used in the experiment was HCT-116, an aggressive colon cancer cell line overexpressing oncogenes including PAR4.
as §1
The inhibitor was injected at the site of the tumor at the day of inoculation. In an additional group, mice implanted with HCT-116 were administered with the inhibitor at day 4 after inoculation. […]
Mice were monitored for tumor size by external caliber measurements (length and width) on days 7, 14, 22 and for up to 32 days, if tumor burden allowed. Tumor volume (V) was calculated by V=L×W^2×0.5, where L is length and W is width. […]

The test system of assay [3] is pEGFR. Kind of assay: PAR4 induced pEGFR in MDA-MB-231 cells (Western blot). The settings on record: endogenous PAR4 and EGFR, AYPGKF 200 μM, FIG. 17. It counts as cell-based, human. On the procedure: Activation of PAR4 induces phosphorylation of EGFR. This is seen 15 min following AYPGKF the synthetic hexa peptide application for PAR4 activation. MDA-231 cells were serum starved over night following AYPGKF PAR4 activation (200 μM) for 5-60 min. Detection by Western blot analyses of pY-EGFR and EGFR was performed using either anti-phospho tyrosine or anti EGFR antibodies respectively. PAR4 activation induces EGFR tyrosine phosphorylation within 15 min.
We have performed immunohistochemical (IHC) staining analyses of EGFR in Her2/Neu and TN breast cancer patient tissues. Analyses have indicated the presence of EGFR in both HER2/Neu as also in TN breast cancer tissue biopsy specimen (FIGS. 16A and 16B, respectively). Pc(4-4) Inhibits PAR4 Induced pEGFR in MDA-MB-231 Cells MDA-MB-231 cells were serum starved overnight following AYPGKF PAR4 activation (200 μM) for 5-60 min in the presence and absence of Pc(4-4) (200 μM). Detection by Western blot analyses of pEGFR and EGFR was performed using either anti-phosphotyrosine or anti-EGFR antibodies (1:1000 dilution), respectively. […] AYPGKF activation of PAR4 leads to pTyr-EGFR in MDA-231 cells (see FIG. 17). […] In the presence of Pc(4-4) cyclic peptide (right panel) potently (200 μM) inhibition of the phosphorylation of EGFR is observed (FIG. 17). […]
A general note: A western blot detects proteins with antibodies after separation by electrophoresis.

Setting [4] is: RKO/PAR4 derived small tumors generated in the presence of the inhibitor vs large tumors.

“Also recorded” adds a separate entry of the source. Numbered stars: 1 amine (or outer) side, 2 acyl side, 3 side chain; on linkers, the order of the positions; unused ones are H or OH. Bridge positions count the residues as written; N and C are the ends. Square brackets hold non-standard residues; d marks the D form. Ends that are not written are not given here. GlyBU(C4) = Gly building unit (N-alpha-functionalized Gly) carrying a C4 alkyl chain (n = m = 4), bridged through a urea group; CO = O=C([*:1])[*:2]

With “Pc(4-4): backbone cyclic analog of Formula I, m=n=4, ring size 30 atoms (S[GlyBU(C4)]EFRDK[GlyBU(C4)]; bridge 2-8 via CO; not fully specified; printed as SZ1EFRDKX3)”, the “apoptosis in tumors (active caspase-3 IHC)” value was “induced levels of active caspase-3” in assay [1] (setting [4]) and “high levels of active caspase-3” in assay [1] (RKO/PAR4 derived small tumors generated in the presence of the inhibitor vs large tumors, listed as PAR4 c(4-4)). Moreover, the “proliferation in tumors (ki67 IHC)” value in assay [1] (setting [4]) is “little”. Also, in assay [1] (RKO/Par4 stable clones in nude mice), the “difference between treatment started at the day of inoculation or 4 days after inoculation” value was “no statistical difference”. In addition, the “tumor growth / tumor size” value in assay [1] is reported as “significantly smaller tumors”; in assay [1] (listed as PAR4 c(4-4)) it was “potently inhibits”; in assay [1] (listed as PAR(4-4)) it was “markedly small tumors”; in assay [2], “significantly smaller tumors; also recorded: potently inhibits”; in assay [2] (listed as PAR4 (4-4)), “much smaller tumors”. For the same substance, in assay [3], the “inhibition of PAR4 induced phosphorylation of EGFR” value was “potently inhibited”.
